Results: ChEMBL document CHEMBL1201862, “PubChem BioAssay data set” (2004)
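Tested at 5 concentrations; 48 h exposure; 96-well plates; endpoints linearly interpolated, else capped at highest concentration. GI50 marks 50% less growth.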 The source made the active and inactive calls. Rule as the data show it: active = GI50 up to about 1.1 µM and inactive = higher.

How the values were obtained:
Experiment in all cases: growth of human tumour cells (NCI), 48 h
BT-549 = tested on: BT-549
786-0 = tested on: 786-0
OVCAR-4 = tested on: OVCAR-4
SF-268 = tested on: SF-268
T47D = tested on: T47D
HOP-92 = tested on: HOP-92
K562 = tested on: K562
RXF 393 = tested on: RXF 393
EKVX = tested on: EKVX
SNB-75 = tested on: SNB-75
Hs-578T = tested on: Hs-578T
ACHN = tested on: ACHN
UO-31 = tested on: UO-31
M14 = tested on: M14
SNB-19 = tested on: SNB-19
SK-MEL-2 = tested on: SK-MEL-2
PC-3 = tested on: PC-3
RPMI-8226 = tested on: RPMI-8226
SK-OV-3 = tested on: SK-OV-3
MCF7 = tested on: MCF7

Structure (SMILES)	GI50 (BT-549)	GI50 (786-0)	GI50 (OVCAR-4)	GI50 (SF-268)	GI50 (T47D)	GI50 (HOP-92)	GI50 (K562)	GI50 (RXF 393)	GI50 (EKVX)	GI50 (SNB-75)	GI50 (Hs-578T)	GI50 (ACHN)	GI50 (UO-31)	GI50 (M14)	GI50 (SNB-19)	GI50 (SK-MEL-2)	GI50 (PC-3)	GI50 (RPMI-8226)	GI50 (SK-OV-3)	GI50 (MCF7)
CC(CCc1nc2ccccc2s1)(c1ccc(O)cc1)c1ccc(O)cc1	19.4 µM (inactive)	15.1 µM (inactive)	19.1 µM (inactive)	20 µM (inactive)	24.8 µM (inactive)	20.1 µM (inactive)	15.4 µM (inactive)	18 µM (inactive)	16.8 µM (inactive)	18.4 µM (inactive)	20.4 µM (inactive)	18.3 µM (inactive)	16.1 µM (inactive)	16.1 µM (inactive)	17.5 µM (inactive)	17 µM (inactive)	14.8 µM (inactive)			
Cc1cnc2cc(Cl)ccc2c1SCC(=O)O	> 100 µM (inactive)	> 100 µM (inactive)	> 100 µM (inactive)	> 100 µM (inactive)	> 100 µM (inactive)	> 100 µM (inactive)	> 100 µM (inactive)	> 100 µM (inactive)	> 100 µM (inactive)		93.5 µM (inactive)	> 100 µM (inactive)	> 100 µM (inactive)	> 100 µM (inactive)	> 100 µM (inactive)	> 100 µM (inactive)	> 100 µM (inactive)	> 100 µM (inactive)		
N=c1oc2cc(O)ccc2cc1C(=O)NCc1ccccc1	17.3 µM (inactive)	32.1 µM (inactive)	31.6 µM (inactive)	23.1 µM (inactive)	8.61 µM (inactive)		10.3 µM (inactive)	19.5 µM (inactive)	32.8 µM (inactive)	8.85 µM (inactive)	15.3 µM (inactive)	14.5 µM (inactive)	25.6 µM (inactive)	34.7 µM (inactive)	23.7 µM (inactive)	14.4 µM (inactive)	28.4 µM (inactive)	10.7 µM (inactive)	16.2 µM (inactive)	33.2 µM (inactive)
CCCCCCSc1nc(COC(=O)NC)c(COC(=O)NC)n1C	> 100 µM (inactive)	> 100 µM (inactive)	> 100 µM (inactive)	> 100 µM (inactive)	> 100 µM (inactive)		> 100 µM (inactive)		> 100 µM (inactive)	> 100 µM (inactive)	> 100 µM (inactive)	> 100 µM (inactive)	> 100 µM (inactive)	> 100 µM (inactive)	> 100 µM (inactive)	> 100 µM (inactive)	> 100 µM (inactive)	> 100 µM (inactive)	> 100 µM (inactive)	> 100 µM (inactive)
COc1cccc(CCCNC(=O)Cc2ccccc2CO)c1	> 100 µM (inactive)	> 100 µM (inactive)	> 100 µM (inactive)		38.1 µM (inactive)	> 100 µM (inactive)	> 100 µM (inactive)		> 100 µM (inactive)	> 100 µM (inactive)	> 100 µM (inactive)	> 100 µM (inactive)	> 100 µM (inactive)	> 100 µM (inactive)	> 100 µM (inactive)	> 100 µM (inactive)	> 100 µM (inactive)		> 100 µM (inactive)	> 100 µM (inactive)
CC(=O)N1C(Nc2cnc3ccccc3c2)CCN1c1ccccc1 (stereo unspecified)	> 10 µM (inactive)	> 10 µM (inactive)	> 10 µM (inactive)	> 10 µM (inactive)	> 10 µM (inactive)		6.58 µM (inactive)	> 10 µM (inactive)	> 10 µM (inactive)	> 10 µM (inactive)	> 10 µM (inactive)	9.57 µM (inactive)	> 10 µM (inactive)	> 10 µM (inactive)	> 10 µM (inactive)	> 10 µM (inactive)	> 10 µM (inactive)	> 10 µM (inactive)	> 10 µM (inactive)	> 10 µM (inactive)
C=C1[C@H](OC(=O)C(C)C)[C@@H](OC(C)=O)[C@@H](OC(C)=O)C(C)(C)[C@@H]2O[C@H]2[C@@H](C)C(=O)[C@@]2(OC(C)=O)C[C@@](C)(OC(C)=O)[C@H](OC(C)=O)[C@@H]2[C@H]1OC(C)=O	> 100 µM (inactive)	> 100 µM (inactive)	> 100 µM (inactive)	> 100 µM (inactive)	> 100 µM (inactive)	> 100 µM (inactive)	> 100 µM (inactive)		> 100 µM (inactive)	0.69 µM (active)	> 100 µM (inactive)	> 100 µM (inactive)	61.9 µM (inactive)	> 100 µM (inactive)	> 100 µM (inactive)	> 100 µM (inactive)	> 100 µM (inactive)	> 100 µM (inactive)	> 100 µM (inactive)	> 100 µM (inactive)
CC1(C)CC2C(/C1=N/O)C1(C)CCCC2(C)C1O (stereo unspecified)	> 100 µM (inactive)	> 100 µM (inactive)	> 100 µM (inactive)	> 100 µM (inactive)	> 100 µM (inactive)	> 100 µM (inactive)	> 100 µM (inactive)		> 100 µM (inactive)	> 100 µM (inactive)	> 100 µM (inactive)	> 100 µM (inactive)	> 100 µM (inactive)	> 100 µM (inactive)	> 100 µM (inactive)	> 100 µM (inactive)	> 100 µM (inactive)	> 100 µM (inactive)	> 100 µM (inactive)	> 100 µM (inactive)
O=[N+]([O-])/C(C(Cl)=C(Cl)Cl)=C(\Nc1cccc2cccnc12)Sc1ccccc1	21.9 µM (inactive)	20 µM (inactive)	23.1 µM (inactive)	17.9 µM (inactive)	18.3 µM (inactive)		28.4 µM (inactive)		27.4 µM (inactive)	23.7 µM (inactive)	13.4 µM (inactive)	22.8 µM (inactive)	18.9 µM (inactive)	39.3 µM (inactive)	31.6 µM (inactive)	17.1 µM (inactive)	18.8 µM (inactive)	31.5 µM (inactive)	34.2 µM (inactive)	20.8 µM (inactive)
Cc1cccc(/C=N/NC(=S)Nc2ccc(Cl)cc2)n1	7.14 µM (inactive)	1.63 µM (inactive)	4.78 µM (inactive)	2.61 µM (inactive)	0.611 µM (active)	3 µM (inactive)	0.329 µM (active)		2.41 µM (inactive)	0.741 µM (active)	2.18 µM (inactive)	1.12 µM (active)	1.87 µM (inactive)	1.08 µM (active)	2.31 µM (inactive)	1.35 µM (inactive)	1.94 µM (inactive)	1.14 µM (inactive)	1.8 µM (inactive)	0.607 µM (active)
Oc1c2cc(Br)cc1CCc1cc(Br)cc(c1O)CC2	22.6 µM (inactive)	30.2 µM (inactive)		22.6 µM (inactive)	38.8 µM (inactive)		20.2 µM (inactive)	20.2 µM (inactive)		21.6 µM (inactive)	23.1 µM (inactive)	23.7 µM (inactive)	12.8 µM (inactive)	16.3 µM (inactive)	31 µM (inactive)	20 µM (inactive)	14.8 µM (inactive)	17.2 µM (inactive)	20.8 µM (inactive)	22.3 µM (inactive)
Clc1nc(Nc2nc3ccccc3[nH]2)nc(Cl)c1Cc1ccccc1	> 100 µM (inactive)	45.9 µM (inactive)	36.1 µM (inactive)	49.4 µM (inactive)	89.3 µM (inactive)	23 µM (inactive)	> 100 µM (inactive)	> 100 µM (inactive)	> 100 µM (inactive)	17.9 µM (inactive)	32.4 µM (inactive)	85.7 µM (inactive)	> 100 µM (inactive)	> 100 µM (inactive)	93.1 µM (inactive)	> 100 µM (inactive)	> 100 µM (inactive)	> 100 µM (inactive)	> 100 µM (inactive)	
CNC(=O)N(CCC#N)CCN(CCN(C(=O)NC)c1ccccc1)C(=O)NC	> 100 µM (inactive)	> 100 µM (inactive)	> 100 µM (inactive)		> 100 µM (inactive)	> 100 µM (inactive)	> 100 µM (inactive)	> 100 µM (inactive)	> 100 µM (inactive)	> 100 µM (inactive)		> 100 µM (inactive)	> 100 µM (inactive)	> 100 µM (inactive)	> 100 µM (inactive)	> 100 µM (inactive)	> 100 µM (inactive)	> 100 µM (inactive)	> 100 µM (inactive)	> 100 µM (inactive)
Cc1ccc(S(=O)(=O)NN=C2C(C)CC(C(C)(C)C)CC2C)cc1 (stereo unspecified)	17.9 µM (inactive)	17.4 µM (inactive)	14.9 µM (inactive)		21.7 µM (inactive)	15.5 µM (inactive)	21 µM (inactive)			20.4 µM (inactive)	37.2 µM (inactive)		21 µM (inactive)	13.5 µM (inactive)	26.3 µM (inactive)	16.2 µM (inactive)	18.8 µM (inactive)	23.2 µM (inactive)	24.4 µM (inactive)	21.1 µM (inactive)
COC(=O)C1CC2(C)C=CC1N(C(=O)OCc1ccccc1)C2 (stereo unspecified)	54.1 µM (inactive)	> 100 µM (inactive)	40 µM (inactive)	> 100 µM (inactive)	40 µM (inactive)		49.7 µM (inactive)	41.9 µM (inactive)	38.2 µM (inactive)	28.5 µM (inactive)	86.5 µM (inactive)	> 100 µM (inactive)	69.5 µM (inactive)	63.8 µM (inactive)	> 100 µM (inactive)	> 100 µM (inactive)	87.7 µM (inactive)	48 µM (inactive)	27.7 µM (inactive)	52.7 µM (inactive)
